The structures appear in SMILES notation. Read-outs that look alike come from different tables or passages of the source.

The text below walks through data of US11667645B2, “Granzyme B directed imaging and therapy” (CytoSite Biopharma Inc., priority 2018, dated 2023).

Series [1] in a line: metabolic stability assay using liver microsomes. It counts as in vitro ADME. The note with it: human liver microsomes, with NRS at 37° C. As to the method: In addition, compounds of Formula I-VIII described above are also tested in the metabolic stability assay using liver microsomes, as provided below.
Buffer pH7.4: Prepare 1 (M) KH2PO4 and 1 (M) K2HPO4. Titrate 1(M) K2HPO4 with 1 (M) KH2PO4 to obtain pH 7.40. Dilute this buffer 10 fold in Water (30 ml buffer+270 ml of water) to obtain 100 mM phosphate buffer. Adjust pH to 7.40±0.02 using 5(N) HCl or 5(N) NaOH.
NADPH Regeneration System (NRS): Prepare a solution containing 13 mM NADP, 33 mM Glucose-6-phosphate, 33 mM MgCl2 and 4 U/ml Glucose-6-phosphate dehydrogenase in buffer.
Liver Microsome (LM) suspension: Thaw LM vial on ice, then mix 1.0 ml LM (20 mg/ml) with 19 ml buffer [final LM Conc: 1 mg/ml]
LM+NRS suspension: Mix 5.0 ml NRS with 20 ml LM suspension [final LM Conc: 0.8 mg/ml]
System suitability standard: a synthesized compound having Mol wt 686.2 used as System suitability standard. Dissolve this compound in ice-cold acetonitrile to obtain concentration of 0.1 μg/ml and store at 4° C.
Compound Stock: 10 mM in DMSO
Sub stock (100 μM): 4 μl of 10 mM Compound Stock+[…] Acetonitrile
Working plate (2 μM): 10 μl of 100 μM Sub stock+490 μl buffer
Incubate all plastic materials including tips at 37° C. overnight.
Incubate LM suspension and NRS at 37° C. for 15 min before use.
Add 40 μl buffer to the wells of blank plate.
Add 40 μl compound (from working plate) to 0, 5, 10, 20, 30 and 60 min plates.
Initiate reaction by adding 40 μl of LM+NRS suspension in each plate.
Terminate reaction by adding 240 μl ice-cold acetonitrile containing system suitability standard at designated time points. For T=0 add 240 μl ice-cold acetonitrile containing system suitability standard before LM+NRS addition.
Centrifuge (3500 rpm, 20 min and 15° C.) the plates.
Mix 110 μl supernatant with 110 μl water and quantitate amount of Compound in the solution using LC-MS/MS.
For Scaled CLint & Predicted CL use the relevant physiological parameters, as applicable.
Human LM: Corning, Cat #25117
Mouse LM: Xenotech, Cat #M1000
(2) Volumes mentioned in the protocol are representative values and may change depending on number of test compounds.
(3) It is assumed that the compounds are chemically stable in the assay system/buffer.
The metabolic stability assay described above can be performed using different test concentrations, LM Concentrations, or time points.
Certain compounds of this disclosure were tested in the microsomal stability assay provided above.
A general note: Microsomes from liver hold many membrane-bound enzymes, among them those of drug oxidation.

Series [2] concerns the target Granzyme B (human lymphocytes) (Homo sapiens (Human), UniProt P10144). The series can be described thus: human Granzyme B biochemical assay. In short, it runs like this: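 Enzyme (10 nM working stock, assay buffer with 0.1% BSA) pre-incubated with compound for 30 min at 22 °C, then Ac-IETD-AFC (800 µM working stock) added for 60 min at 22 °C in the dark. Fluorescence read at Ex 400/Em 505 nm; 8-point 3.16-fold series (40 µM top working stock); IC50 from % inhibition versus standard-inhibitor and DMSO controls.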

The mark [3] stands for this setting: Granzyme B (human lymphocytes) 5 nM, substrate Ac-IETD-AFC 200 μM, Cpd incubation with enzyme 30 mins, 22° C., read time 60 mins, read-out: IC50.
Setting [4] is: Granzyme B IC50 as repeated in Table 7, read-out: IC50.
The mark [5] stands for this setting: Granzyme B IC50 as repeated in Table 7.

Sequence of Granzyme B (human lymphocytes) (P10144 21-247): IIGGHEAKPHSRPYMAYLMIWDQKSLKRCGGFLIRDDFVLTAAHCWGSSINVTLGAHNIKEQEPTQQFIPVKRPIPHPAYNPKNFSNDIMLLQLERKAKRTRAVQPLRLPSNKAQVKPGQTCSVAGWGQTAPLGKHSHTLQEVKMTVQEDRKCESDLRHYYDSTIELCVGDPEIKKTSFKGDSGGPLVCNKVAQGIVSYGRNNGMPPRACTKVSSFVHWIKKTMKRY

On to `CC[C@H](C)[C@H](NC(C)=O)C(=O)N[C@H]1CCc2cccc3c2N(C1=O)[C@H](C(=O)NCc1c[nH]nn1)C3` [Compound C028, (2S,5S)-5-((2S,3S)-2-Acetylamino-3-methyl-pentanoylamino)-4-oxo-1,2,4,5,6,7-hexahydro-azepino[3,2,1-hi]indole-2-carboxylic acid (1H-[1,2,3]triazol-4-ylmethyl)-amide], for which the “HLM % remaining @ 30 min” value in series [1] is “*** (the symbol “***” indicates a remaining percentage of 71-100%)”. Further, the IC50 in series [2] (setting [3]) and in series [2] (setting [4]) was 1 to 300 nM throughout.
For `CC[C@H](C)[C@H](NC(C)=O)C(=O)N[C@H]1COc2cccc3c2N(C1=O)[C@H](C(=O)NCc1c[nH]nn1)C3` [Compound C097, (1S,8S)-8-((2S,3S)-2-Acetylamino-3-methyl-pentanoylamino)-9-oxo-1,2,8,9-tetrahydro-7H-6-oxa-9a-aza-benzo[cd]azulene-1-carboxylic acid (1H-[1,2,3]triazol-4-ylmethyl)-amide], in series [1], the “HLM % remaining @ 30 min” value is given as “*** (the symbol “***” indicates a remaining percentage of 71-100%)”. Further, the IC50 in series [2] (setting [3]) and in series [2] (setting [4]) was 1 to 300 nM throughout.
For `CC[C@H](C)[C@H](NC(=O)c1ccnc(F)c1)C(=O)N[C@H]1CCc2cccc3c2N(C1=O)[C@H](C(=O)NCc1c[nH]nn1)C3` [Compound C141, (2S,5S)-5-{(2S,3S)-2-[(2-Fluoro-pyridine-4-carbonyl)-amino]-3-methyl-pentanoylamino}4-oxo-1,2,4,5,6,7-hexahydro-azepino[3,2,1-hi]indole-2-carboxylic acid (1H-[1,2,3]triazol-4-ylmethyl)-amide], the “HLM % remaining @ 30 min” value in series [1] is “*** (the symbol “***” indicates a remaining percentage of 71-100%)”. Further, the half-maximal inhibitory concentration (IC50) in series [2] (setting [3]) and in series [2] (setting [4]) was 1 to 300 nM throughout.
Regarding `CC(C)[C@H](NC(=O)CF)C(=O)N[C@H]1CCc2cccc3c2N(C1=O)[C@H](C(=O)NCc1c[nH]nn1)C3` [Compound C057, (2S,5S)-5-[(S)-2-(2-Fluoro-acetylamino)-3-methyl-butyrylamino]-4-oxo-1,2,4,5,6,7-hexahydro-azepino[3,2,1-hi]indole-2-carboxylic acid (1H-[1,2,3]triazol-4-ylmethyl)-amide], the “HLM % remaining @ 30 min” value in series [1] is listed as “*** (the symbol “***” indicates a remaining percentage of 71-100%)”. For the same molecule, the IC50 in series [2] and in series [2] (setting [5]) was 1 to 300 nM in each case.
With `CC(C)[C@H](NC(=O)Cc1csc2ccccc12)C(=O)N[C@H]1CCc2cccc3c2N(C1=O)[C@H](C(=O)NCc1c[nH]nn1)C3` [Compound C003, (2S,5S)-5-[(S)-2-(2-Benzo[b]thiophen-3-yl-acetylamino)-3-methyl-butyrylamino]-4-oxo-1,2,4,5,6,7-hexahydro-azepino[3,2,1-hi]indole-2-carboxylic acid (1H-[1,2,3]triazol-4-ylmethyl)-amide], in series [1], the “HLM % remaining @ 30 min” value is recorded as “* (“*” indicates a remaining percentage of 0-30%)”. Also, the IC50 in series [2] (setting [4]) was 1 to 300 nM.
For the molecule `CC[C@H](C)[C@H](NC(=O)c1ccc(F)nc1)C(=O)N[C@H]1CCc2cccc3c2N(C1=O)[C@H](C(=O)NCc1c[nH]nn1)C3` [Compound C140, (2S,5S)-5-{(2S,3S)-2-[(6-Fluoro-pyridine-3-carbonyl)-amino]-3-methyl-pentanoylamino}-4-oxo-1,2,4,5,6,7-hexahydro-azepino[3,2,1-hi]indole-2-carboxylic acid (1H-[1,2,3]triazol-4-ylmethyl)-amide], the “HLM % remaining @ 30 min” value in series [1] is recorded as “*** (the symbol “***” indicates a remaining percentage of 71-100%)”. Besides, the IC50 in series [2] (setting [3]) and in series [2] (setting [4]) was 1 to 300 nM in each case.
Consider `CC[C@@H](C)[C@H](NC(=O)Cc1csc2ccccc12)C(=O)N[C@H]1CCc2cccc3c2N(C1=O)[C@H](C(=O)NCc1c[nH]nn1)C3` [Compound C054, (2S,5S)-5-[(2S,3R)-2-(2-Benzo[b]thiophen-3-yl-acetylamino)-3-methyl-pentanoylamino]-4-oxo-1,2,4,5,6,7-hexahydro-azepino[3,2,1-hi]indole-2-carboxylic acid (1H-[1,2,3]triazol-4-ylmethyl)-amide], for which the “HLM % remaining @ 30 min” value in series [1] is on record as “* (“*” indicates a remaining percentage of 0-30%)”. The IC50 in series [2] (setting [3]) and in series [2] (setting [4]) was 1 to 300 nM in each case.
As to `CC[C@H](C)[C@H](NC(=O)Cc1csc2ccccc12)C(=O)N[C@H]1CCc2cccc3c2N(C1=O)[C@H](C(=O)NCc1c[nH]nn1)C3` [Compound C006, (2S,5S)-5-[(2S,3S)-2-(2-Benzo[b]thiophen-3-yl-acetylamino)-3-methyl-pentanoylamino]-4-oxo-1,2,4,5,6,7-hexahydro-azepino[3,2,1hi]indole-2-carboxylic acid (1H-[1,2,3]triazol-4-ylmethyl)-amide], the “HLM % remaining @ 30 min” value in series [1] is given as “* (“*” indicates a remaining percentage of 0-30%)”. The half-inhibitory concentration (IC50) in series [2] (setting [3]) and in series [2] (setting [4]) was 1 to 300 nM each time. For the same molecule, the “biological potency of separated isomer (in words)” value in series [2] (isomers separated by prep HPLC or column chromatography) was “biologically potent”.
With `CC(C)[C@H](NC(=O)c1ccccc1)C(=O)N[C@H]1CCc2cccc3c2N(C1=O)[C@H](C(=O)NCc1c[nH]nn1)C3` [Compound C036, (2S,5S)-5-((S)-2-Benzoylamino-3-methyl-butyrylamino)-4-oxo-1,2,4,5,6,7-hexahydro-azepino[3,2,1-hi]indole-2-carboxylic acid (1H-[1,2,3]triazol-4-ylmethyl)-amide], the “HLM % remaining @ 30 min” value in series [1] is reported as “*** (the symbol “***” indicates a remaining percentage of 71-100%)”. The concentration for half-maximal inhibition (IC50) in series [2] (setting [3]) and in series [2] (setting [4]) was 1 to 300 nM throughout.
`CC[C@H](C)[C@H](NC(=O)c1ccccc1)C(=O)N[C@H]1COc2cccc3c2N(C1=O)[C@H](C(=O)NCc1c[nH]nn1)C3` [Compound C096, (1S,8S)-8-((2S,3S)-2-Benzoylamino-3-methyl-pentanoylamino)-9-oxo-1,2,8,9-tetrahydro-7H-6-oxa-9a-aza-benzo[cd]azulene-1-carboxylic acid (1H-[1,2,3]triazol-4-ylmethyl)-amide]: the “HLM % remaining @ 30 min” value in series [1] is recorded as “** (“**” indicates a remaining percentage of 31-70%)”. The IC50 in series [2] (setting [3]) and in series [2] (setting [4]) was 1 to 300 nM in each case.
Turning to `CC(C)[C@H](NC(=O)COCCF)C(=O)N[C@H]1COc2cccc3c2N(C1=O)[C@H](C(=O)NCc1c[nH]nn1)C3` [Compound C103, (1S,8S)-8-{(S)-2-[2-(2-Fluoro-ethoxy)-acetylamino]-3-methyl-butyrylamino}-9-oxo-1,2,8,9-tetrahydro-7H-6-oxa-9a-aza-benzo[cd]azulene-1-carboxylic acid (1H-[1,2,3]triazol-4-ylmethyl)-amide], in series [1], the “HLM % remaining @ 30 min” value was “*** (the symbol “***” indicates a remaining percentage of 71-100%)”. The 50% inhibitory concentration (IC50) in series [2] (setting [3]) and in series [2] (setting [4]) was 1 to 300 nM throughout.
In the case of `CC[C@H](C)[C@H](NC(=O)CF)C(=O)N[C@H]1CCc2cccc3c2N(C1=O)[C@H](C(=O)NCc1c[nH]nn1)C3` [Compound C059, (2S,5S)-5-[(2S,3S)-2-(2-Fluoro-acetylamino)-3-methyl-pentanoylamino]-4-oxo-1,2,4,5,6,7-hexahydro-azepino[3,2,1-hi]indole-2-carboxylic acid (1H-[1,2,3]triazol-4-ylmethyl)-amide], the “HLM % remaining @ 30 min” value in series [1] is “*** (the symbol “***” indicates a remaining percentage of 71-100%)”. In addition, the half-inhibitory concentration (IC50) in series [2] and in series [2] (setting [5]) was 1 to 300 nM each time.

One may read the IC50 as the concentration that inhibits the measured activity by half.
